The results in this text go back to PubChem BioAssay (NCI).

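48-hour exposure; five concentrations; linearly interpolated endpoints. Abbreviation: GI50, concentration required for 50% inhibition of growth. TGI: concentration producing complete growth inhibition.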 Bounds are passed on as bounds.

Test systems include OVCAR-4 ovarian; OVCAR-5 ovarian; PC-3 prostate; HCC-2998 colon; NCI-H226 lung; ACHN renal; NCI-H23 lung; A498 renal; NCI-H522 lung; COLO 205 colon.
Holding throughout (assay): inhibition of tumour cell growth, NCI panel, 48 h

For the molecule `Cn1ccnc1C(=O)/C=C/c1ccc(CC(=O)Nc2ccccc2)cc1`, the GI50 in the assay with OVCAR-4 ovarian is 4.12 µM; in the assay with OVCAR-5 ovarian, 4.19 µM; in the assay on PC-3 prostate it was 3290 nM; in the assay with HCC-2998 colon, 4.42 µM; in the assay with NCI-H226 lung it was 8.59 µM; with ACHN renal it was 5.24 µM. In addition, the GI50 in the assay with NCI-H23 lung is 3.24 µM; with A498 renal it was 6.08 µM; in the assay on NCI-H522 lung, 3200 nM; with COLO 205 colon, 3770 nM. In addition, the TGI in the assay on OVCAR-4 ovarian is > 25 µM; in the assay on OVCAR-5 ovarian, 14.7 µM; in the assay on PC-3 prostate it was 8.55 µM; with HCC-2998 colon it was 8.96 µM; in the assay with NCI-H226 lung it was > 25 µM; with ACHN renal it was 15.6 µM. Also, the TGI worked out at 11.3 µM with NCI-H23 lung, 14.5 µM in the assay with A498 renal, 6.45 µM in the assay with NCI-H522 lung and 9.39 µM with COLO 205 colon.

For the molecule `CN(C)c1ccc2cc(-c3ccccc3F)c(N)nc2c1`, the GI50 with OVCAR-4 ovarian is 3.83 µM; in the assay with OVCAR-5 ovarian it was 3.55 µM; in the assay with PC-3 prostate, 2210 nM; in the assay with HCC-2998 colon, 3.18 µM; in the assay with NCI-H226 lung, 3.61 µM; with ACHN renal, 3.8 µM. Moreover, the GI50 in the assay on NCI-H23 lung was 2.89 µM; in the assay with A498 renal it was 2.32 µM; in the assay on NCI-H522 lung, 1350 nM; in the assay with COLO 205 colon it was 1380 nM. Besides, the TGI was 36 µM with OVCAR-4 ovarian; 17.8 µM in the assay with OVCAR-5 ovarian; 15.2 µM in the assay with PC-3 prostate; 17.6 µM in the assay with HCC-2998 colon; 20.3 µM with NCI-H226 lung; 17.3 µM with ACHN renal. Besides, the TGI in the assay with NCI-H23 lung came out at 15.7 µM; in the assay on A498 renal, 15.2 µM; in the assay on NCI-H522 lung it was 5.87 µM; in the assay on COLO 205 colon, 6.35 µM.
